Assay results as given in US20230000813A1, “COMPOUND FOR THE TREATMENT OF BOVINE OR SWINE RESPIRATORY DISEASE” (Intervet Inc., priority 2016, published 2023).
Converted amounts (≈) assume the structure as drawn.

Assays:
Test in all cases: MIC, broth-microdilution (CLSI VET01-A4)
Assay type in all cases: cell-based
[1] = system: Mannheimia haemolytica MH 13065 (XB0446-6003.9, BRD field isolate)
Summary of the method: (§1)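 MIC read by eye as lowest compound concentration without visible growth (no turbidity), interpreted per CLSI VET01-S3. Doubling-dilution broth-microdilution trays, run according to CLSI VET01-A4.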

[2] = system: Mannheimia haemolytica MH 13093 (XB0472-6014.1, BRD field isolate)
Summary of the method: as §1

[3] = system: Mannheimia haemolytica MH 10720 (154, BRD field isolate); settings: Mannheimia haemolytica MH 10720
Summary of the method: (§2)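 Test compound is serially diluted twofold across microdilution trays, bacteria are grown, and wells are inspected by eye. The lowest concentration showing no growth is recorded as the MIC.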

[4] = system: Pasteurella multocida PM 12080 (IV102277-0093, BRD field isolate); settings: Pasteurella multocida PM 12080
Summary of the method: as §2

[5] = system: Pasteurella multocida PM 10775 (080130003051, BRD field isolate); settings: Pasteurella multocida PM 10775
Summary of the method: as §2

[6] = system: Pasteurella multocida PM 6391 (ATCC 43137, reference strain); settings: Pasteurella multocida PM 6391; for MIC: read-out: MIC PM 6391
Summary of the method: as §2

[7] = system: Mannheimia haemolytica MH 12587 (1071, BRD field isolate, macrolide-resistance: erm+, E+); settings: Mannheimia haemolytica MH 12587, macrolide-resistant
Summary of the method: as §2

[8] = system: Mannheimia haemolytica MH 6357 (M7/2, reference strain, cattle infection strain); settings: Mannheimia haemolytica MH 6357; read-out: MIC MH 6357
Summary of the method: as §2

[9] = system: Pasteurella multocida PM 6267 (P 2225 (L386), reference strain, mouse infection strain); settings: Pasteurella multocida PM 6267
Summary of the method: as §2

[10] = system: Mannheimia haemolytica MH 6374 (ATCC 33396, reference strain); settings: Mannheimia haemolytica MH 6374; for MIC: read-out: MIC MH 6374
Summary of the method: as §2

Compound: CC(C)(N)C(NC(=O)c1ccc(C#Cc2ccc(CNCc3nccs3)s2)cc1)C(=O)NO (stereo not shown) [Compound 564]
- MIC [1]: 0.8 µM (≈ 0.387 µg/mL)
- MIC [2]: 0.8 µM (≈ 0.387 µg/mL)
- MIC MH 10720 [3]: <=0.1 μM
- MIC PM 12080 [4]: <=0.1 μM
- MIC PM 10775 [5]: <=0.1 μM
- MIC PM 6391 [6]: <=0.1 μM
- MIC MH 12587 [7]: 0.8 µM (≈ 0.387 µg/mL)
- MIC [8]: 0.8 µM (≈ 0.387 µg/mL)
- MIC PM 6267 [9]: <=0.1 μM
- MIC [10]: 0.4 µM (≈ 0.193 µg/mL)

Compound: CC(C)(O)C(NC(=O)c1ccc(C#Cc2ccc(CNC3CC3)cc2)cc1)C(=O)NO (stereo not shown) [Compound 565]
- MIC [1]: 0.4 µM (≈ 0.169 µg/mL)
- MIC [2]: 0.8 µM (≈ 0.337 µg/mL)
- MIC MH 10720 [3]: <=0.1 μM
- MIC PM 12080 [4]: <=0.1 μM
- MIC PM 10775 [5]: <=0.1 μM
- MIC PM 6391 [6]: <=0.1 μM
- MIC MH 12587 [7]: 1.6 µM (≈ 0.674 µg/mL)
- MIC [8]: 1.6 µM (≈ 0.674 µg/mL)
- MIC PM 6267 [9]: <=0.1 μM
- MIC [10]: 0.4 µM (≈ 0.169 µg/mL)

Compound: CC(C)(O)C(NC(=O)c1ccc(C#Cc2ccc(CNCc3ccccc3)cc2)cc1)C(=O)NO (stereo not shown) [Compound 569]
- MIC [1]: 0.4 µM (≈ 0.189 µg/mL)
- MIC [2]: 0.4 µM (≈ 0.189 µg/mL)
- MIC MH 10720 [3]: <=0.1 μM
- MIC PM 12080 [4]: <=0.1 μM
- MIC PM 10775 [5]: <=0.1 μM
- MIC PM 6391 [6]: <=0.1 μM
- MIC MH 12587 [7]: 0.8 µM (≈ 0.377 µg/mL)
- MIC [8]: 0.8 µM (≈ 0.377 µg/mL)
- MIC PM 6267 [9]: <=0.1 μM
- MIC [10]: 0.4 µM (≈ 0.189 µg/mL)

Compound: COc1ccc(CNCc2ccc(C#Cc3ccc(C(=O)NC(C(=O)NO)C(C)(C)O)cc3)cc2)cc1 (stereo not shown) [Compound 570]
- MIC [1]: 0.8 µM (≈ 0.401 µg/mL)
- MIC [2]: 0.8 µM (≈ 0.401 µg/mL)
- MIC MH 10720 [3]: <=0.1 μM
- MIC PM 12080 [4]: <=0.1 μM
- MIC PM 10775 [5]: <=0.1 μM
- MIC [6]: 0.4 µM (≈ 0.201 µg/mL)
- MIC MH 12587 [7]: 1.6 µM (≈ 0.803 µg/mL)
- MIC [8]: 0.8 µM (≈ 0.401 µg/mL)
- MIC PM 6267 [9]: <=0.1 μM
- MIC [10]: 0.8 µM (≈ 0.401 µg/mL)

Compound: CC(C)(O)C(NC(=O)c1ccc(C#Cc2ccc(CNCc3cccnc3)cc2)cc1)C(=O)NO (stereo not shown) [Compound 574]
- MIC [1]: 0.4 µM (≈ 0.189 µg/mL)
- MIC [2]: 0.8 µM (≈ 0.378 µg/mL)
- MIC MH 10720 [3]: <=0.1 μM
- MIC PM 12080 [4]: <=0.1 μM
- MIC PM 10775 [5]: <=0.1 μM
- MIC PM 6391 [6]: <=0.1 μM
- MIC MH 12587 [7]: 1.6 µM (≈ 0.756 µg/mL)
- MIC [8]: 0.8 µM (≈ 0.378 µg/mL)
- MIC PM 6267 [9]: <=0.1 μM
- MIC [10]: 0.4 µM (≈ 0.189 µg/mL)

Compound: CC(C)(O)C(NC(=O)c1ccc(C#Cc2ccc(CNCc3ccnc(Cl)c3)cc2)cc1)C(=O)NO (stereo not shown) [Compound 575]
- MIC [1]: 0.2 µM (≈ 0.101 µg/mL)
- MIC [2]: 0.4 µM (≈ 0.203 µg/mL)
- MIC MH 10720 [3]: <=0.1 μM
- MIC PM 12080 [4]: <=0.1 μM
- MIC PM 10775 [5]: <=0.1 μM
- MIC PM 6391 [6]: <=0.1 μM
- MIC MH 12587 [7]: 0.4 µM (≈ 0.203 µg/mL)
- MIC [8]: 0.4 µM (≈ 0.203 µg/mL)
- MIC PM 6267 [9]: <=0.1 μM
- MIC [10]: 0.4 µM (≈ 0.203 µg/mL)

Compound: CC(C)(O)C(NC(=O)c1ccc(C#Cc2ccc(CNCc3ccccn3)cc2)cc1)C(=O)NO (stereo not shown) [Compound 576]
- MIC [1]: 0.8 µM (≈ 0.378 µg/mL)
- MIC [2]: 0.8 µM (≈ 0.378 µg/mL)
- MIC MH 10720 [3]: <=0.1 μM
- MIC PM 12080 [4]: <=0.1 μM
- MIC PM 10775 [5]: <=0.1 μM
- MIC PM 6391 [6]: <=0.1 μM
- MIC MH 12587 [7]: 1.6 µM (≈ 0.756 µg/mL)
- MIC [8]: 0.8 µM (≈ 0.378 µg/mL)
- MIC PM 6267 [9]: <=0.1 μM
- MIC [10]: 0.4 µM (≈ 0.189 µg/mL)

Compound: CC(C)(O)C(NC(=O)c1ccc(C#Cc2ccc(CNCc3ccco3)cc2)cc1)C(=O)NO (stereo not shown) [Compound 577]
- MIC [1]: 0.2 µM (≈ 0.0923 µg/mL)
- MIC [2]: 0.4 µM (≈ 0.185 µg/mL)
- MIC MH 10720 [3]: <=0.1 μM
- MIC PM 12080 [4]: <=0.1 μM
- MIC PM 10775 [5]: <=0.1 μM
- MIC PM 6391 [6]: <=0.1 μM
- MIC MH 12587 [7]: 0.8 µM (≈ 0.369 µg/mL)
- MIC [8]: 0.4 µM (≈ 0.185 µg/mL)
- MIC PM 6267 [9]: <=0.1 μM
- MIC [10]: 0.2 µM (≈ 0.0923 µg/mL)

Compound: CC(C)(O)C(NC(=O)c1ccc(C#Cc2ccc(CNCc3cccs3)cc2)cc1)C(=O)NO (stereo not shown) [Compound 578]
- MIC MH 13065 [1]: <=0.1 μM
- MIC [2]: 0.2 µM (≈ 0.0955 µg/mL)
- MIC MH 10720 [3]: <=0.1 μM
- MIC PM 12080 [4]: <=0.1 μM
- MIC PM 10775 [5]: <=0.1 μM
- MIC PM 6391 [6]: <=0.1 μM
- MIC MH 12587 [7]: 0.4 µM (≈ 0.191 µg/mL)
- MIC [8]: 0.4 µM (≈ 0.191 µg/mL)
- MIC PM 6267 [9]: <=0.1 μM
- MIC MH 6374 [10]: <=0.1 μM

Compound: Cc1ccc(CNCc2ccc(C#Cc3ccc(C(=O)NC(C(=O)NO)C(C)(C)O)cc3)cc2)cc1 (stereo not shown) [Compound 579]
- MIC [1]: 0.4 µM (≈ 0.194 µg/mL)
- MIC [2]: 0.8 µM (≈ 0.388 µg/mL)
- MIC MH 10720 [3]: <=0.1 μM
- MIC PM 12080 [4]: <=0.1 μM
- MIC PM 10775 [5]: <=0.1 μM
- MIC [6]: 0.2 µM (≈ 0.0971 µg/mL)
- MIC MH 12587 [7]: 1.6 µM (≈ 0.777 µg/mL)
- MIC [8]: 0.8 µM (≈ 0.388 µg/mL)
- MIC PM 6267 [9]: <=0.1 μM
- MIC [10]: 0.4 µM (≈ 0.194 µg/mL)
